Read-outs that look alike come from different tables or passages of the source.

The record followed here is article PMC4890880 (ACS infectious diseases, 2016).

Data set [1] has as its system Plasmodium berghei (Pb-Luc) exoerythrocytic-stage parasites. The experiment in a line: microbe, parasite or virus in culture.
The subject of data set [2] is HepG2-A16-CD81EGFP cells. The data set can be described thus: cells. The note with it: Homo sapiens, HepG2, read-out: % inhibition.
In data set [3] the test system is HepG2-A16-CD81EGFP cells. The note with it: human, 50 uM.
Setting [4] is: read-out: Inhibition% @ 50 uM rep1.
Setting [5] is: read-out: Inhibition% @ 50 uM rep2.

Take `CCCCCCc1cc(O)c2c3c(c(=O)oc2c1)CCC(C)C3` (stereo not drawn) [MMV665987]: the inhibition at 50 µM was found to be 103% in data set [1] (setting [4]), 104% in data set [1] (setting [5]) and 95.8% in data set [2].
As for `O=C(Cc1ccccc1)NC(c1ccc(Cl)cc1)c1c(O)ccc2ccccc12` (stereo not drawn) [MMV665972], the inhibition at 50 µM was 101% in data set [1] (setting [4]), 101% in data set [1] (setting [5]) and 97.4% in data set [2].
With `CCCCOC(=O)c1ccc(Nc2cc(C)nc3ccc(OC)cc23)cc1` [MMV665797], the results for the inhibition at 50 µM in data set [1] (setting [4]), in data set [1] (setting [5]) and in data set [2] were 100%, 101% and 95.1%, respectively.
The like results for `COc1ccc(C(O)(CCC(C)C)C(CN2CCOCC2)c2ccc(Cl)cc2)cc1` (stereo not drawn) [MMV000617] were, in that order, 103%, 103% and 98.4%.
As for `COc1ccc(C(=O)C2CC2c2ccc(Cl)cc2)cc1` (stereo not drawn) [MMV665924], the inhibition at 50 µM was 79% in data set [1] (setting [4]), 83% in data set [1] (setting [5]) and 38.1% in data set [2].
On the same counts, the results for `CCOc1c(Cl)cc(CNC(C)C(O)c2ccccc2)cc1OC` (stereo not drawn) [MMV665857] are 102%, 103% and 98.7%.
In the case of `O=C(Nc1cccc(C2=NCCN2)c1)Nc1cccc(C2=NCCN2)c1` [MMV665810], the values for the inhibition at 50 µM in data set [1] (setting [4]), in data set [1] (setting [5]) and in data set [2] were 61%, 83% and 48.2%, respectively.
In the case of `N=c1n(CCN2CCCCC2)c2ccccc2n1CC(=O)c1ccc(Cl)c(Cl)c1` [MMV396723], the inhibition at 50 µM was 101% in data set [1] (setting [4]), 102% in data set [1] (setting [5]) and 96.7% in data set [2].
The like results for `CCOC(=O)C1(Cc2ccccc2)CCN(Cc2cccc(OC)c2O)CC1` [MMV666109] were, in that order, 99%, 100% and 79%.
With `COc1ccc(CN2CCN(Cc3ccccc3)CC2)c(O)c1` [MMV665944], the inhibition at 50 µM in data set [1] (setting [4]) was 69%; in data set [1] (setting [5]), 72%; in data set [2], 85.9%.
The like results for `O=C(NC1CCCCC1)C(c1cccs1)N(CCc1ccccc1)C(=O)c1ccco1` (stereo not drawn) [MMV666106] were, in that order, 102%, 103% and 76.6%.
On the same counts, the results for `COc1ccc(C(=O)NC(c2ccccc2Cl)c2cc(Cl)c3cccnc3c2O)cc1` (stereo not drawn) [MMV666022] are 103%, 104% and 99.5%.
On the same counts, the results for `COc1cc2c3cc1Oc1c(OC)c(OC)cc4c1C(Cc1ccc(O)c(c1)Oc1ccc(cc1)CC3N(C)CC2)N(C)CC4` (stereo not drawn) [MMV007474] are 104%, 104% and 99.3%.
Turning to `Oc1ccc(C(=C(Cl)Cl)c2ccc(O)cc2)cc1` [MMV665949], the inhibition at 50 µM in data set [1] (setting [4]) stood at 98%; in data set [1] (setting [5]), 99%; in data set [2] it was 87.2%.
The like results for `CCOc1ccc2nc(C)cc(Nc3ccc(Br)cc3)c2c1` [MMV006522] were, in that order, 102%, 104% and 98.8%.
Turning to `CCCCc1c(CCC)c(=N)c2ccccc2n1C` [MMV007764], the inhibition at 50 µM in data set [1] (setting [4]) was 103%; in data set [1] (setting [5]) it was 103%; in data set [2] it was 83.9%.
`CCCCCCc1cc2cc(-c3nc4ccccc4[nH]3)c(=Nc3ccccc3C)oc2cc1O` [MMV666597]: the inhibition at 50 µM in data set [1] (setting [4]) turned out to be 102%; in data set [1] (setting [5]), 103%; in data set [2], 85.4%.
On the same counts, the results for `COc1ccc(CNC(=O)c2cc3c(=O)n4ccccc4nc3n(CCc3ccccc3)c2=N)cc1` [MMV665881] are 68%, 76% and 1.19%.
For `COc1cc(OC)cc(N2C(=O)N(Cc3ccc(C(C)(C)C)cc3)c3ccccc3S2(=O)=O)c1` [MMV008173], the inhibition at 50 µM in data set [1] (setting [4]) is 78%; in data set [1] (setting [5]) it was 88%; in data set [2], -9.98%.
The like results for `CC1CCN(Cc2c(O)ccc3cc(-c4nc5ccccc5s4)c(=O)oc23)CC1` [MMV009127] were, in that order, 75%, 76% and -10.1%.
The like results for `CCOc1c(Br)cc(C2C(C(=O)OC)=CN(C)C=C2C(=O)OC)cc1OC` [MMV006764] were, in that order, 103%, 103% and 31.2%.
On the same counts, the results for `Cn1c(=O)n(C)c2cc(CNCCNc3ccnc4cc(Cl)ccc34)ccc21` [MMV665875] are 92%, 92% and 45.3%.
With `O=C(CCl)NCCOc1ccc(Cl)cc1Cl` [MMV665927], the inhibition at 50 µM was 100% in data set [1] (setting [4]), 99% in data set [1] (setting [5]) and 91.7% in data set [2].
Take `COc1ccc(CCN2CCC(CN(C)Cc3cnn(-c4ccccc4)c3)CC2)cc1` [MMV666069]: the inhibition at 50 µM in data set [1] (setting [4]) was 101%. In data set [1] (setting [5]), the inhibition at 50 µM stood at 103%. In data set [3], the “HepG2 Tox% @ 50 uM rep1” value was found to be 99% and the “HepG2 Tox% @ 50 uM rep2” value is given as 100%.
On the same counts, the results for `COc1ccc(CNC2CCN(c3ccc(NC(=O)c4cccc(Cl)c4)cc3)CC2)cc1OC` [MMV666067] are 102%, 99%, 98% and 99%.
On the same counts, the results for `COc1nc(Nc2ccc(C(C)C)cc2)nc(OC)n1` [MMV007808] are 101%, 96%, 94% and 95%.
Regarding `Oc1ccc2ccccc2c1CNc1nc2ccccc2[nH]1` [MMV011832], the inhibition at 50 µM in data set [1] (setting [4]) was 99%; in data set [1] (setting [5]), 101%. The “HepG2 Tox% @ 50 uM rep1” value in data set [3] was found to be 100%.
For `CC(C)CNC(=O)c1c(N)n(CCc2ccccc2F)c2nc3ccccc3nc12` [MMV396744], the inhibition at 50 µM in data set [1] (setting [4]) came out at 101%; in data set [1] (setting [5]) it was 103%. Also, the “HepG2 Tox% @ 50 uM rep1” value in data set [3] stood at 99%. Moreover, in data set [3], the “HepG2 Tox% @ 50 uM rep2” value was 99%.
With `CCC(O)c1ccc(Br)cc1NC(=O)c1cccc(Cl)c1` (stereo not drawn) [MMV020654], the inhibition at 50 µM in data set [1] (setting [4]) amounted to 104%; in data set [1] (setting [5]) it was 106%. For the same molecule, the “HepG2 Tox% @ 50 uM rep1” value in data set [3] amounted to 101%. Further, the “HepG2 Tox% @ 50 uM rep2” value in data set [3] came to 101%.
Take `COc1ccc(Nc2cc(C)nc(NCc3ccccc3)n2)cc1` [MMV006825]: the inhibition at 50 µM in data set [1] (setting [4]) and in data set [1] (setting [5]) was 100% in each case. The “HepG2 Tox% @ 50 uM rep1” value in data set [3] is on record as 97%.
Take `CN(C)CCCNCc1ccc(-c2ccc(F)c(Cl)c2)o1` [MMV020505]: the inhibition at 50 µM in data set [1] (setting [4]) and in data set [1] (setting [5]) was 98% throughout. For the same molecule, the “HepG2 Tox% @ 50 uM rep1” value in data set [3] is listed as 96%.
As to `COc1ccc(C=C2SC(Nc3ccc(F)cc3)=NC2=O)c(OC)c1` [MMV084434], the results for the inhibition at 50 µM in data set [1] (setting [4]) and in data set [1] (setting [5]) were 103% and 104%, respectively. Moreover, in data set [3], the “HepG2 Tox% @ 50 uM rep1” value is given as 100%.
On the same counts, the results for `CN(C)CCNc1cc(-c2ccccc2)nc2ccccc12` [MMV006704] are 95%, 97% and 96%.
For `COc1ccc(C(=O)Nc2ccc3nc(N4CCCCC4)cc(C)c3c2)cc1OC` [MMV019758], the inhibition at 50 µM in data set [1] (setting [4]) and in data set [1] (setting [5]) was 104% in each case. Moreover, the “HepG2 Tox% @ 50 uM rep1” value in data set [3] was found to be 101%. In data set [3], the “HepG2 Tox% @ 50 uM rep2” value is given as 101%.
As to `O=C(CCc1ccccc1)c1ccccc1OCC(O)CN1CCCCC1` (stereo not drawn) [MMV009015], the inhibition at 50 µM in data set [1] (setting [4]) was 99%; in data set [1] (setting [5]), 100%. The “HepG2 Tox% @ 50 uM rep1” value in data set [3] is 97%.
For `FC(F)(F)c1cccc(CNC2CCN(CCc3ccccc3)CC2)c1` [MMV665979], the results for the inhibition at 50 µM in data set [1] (setting [4]) and in data set [1] (setting [5]) were 101% and 99%, respectively. Moreover, in data set [3], the “HepG2 Tox% @ 50 uM rep1” value was 99%. Moreover, in data set [3], the “HepG2 Tox% @ 50 uM rep2” value stood at 99%.
Consider `N=c1n(CCN2CCCCC2)c2ccccc2n1CC(O)c1cccc(Br)c1` (stereo not drawn) [MMV665902], for which the inhibition at 50 µM in data set [1] (setting [4]) is 104%. For the same molecule, the inhibition at 50 µM in data set [1] (setting [5]) turned out to be 105%. In data set [3], the “HepG2 Tox% @ 50 uM rep1” value came to 101% and the “HepG2 Tox% @ 50 uM rep2” value is 102%.
In the case of `COc1cc(-c2nc(-c3ccccc3)c(-c3ccccc3)[nH]2)cc(OC)c1O` [MMV020750], the results for the inhibition at 50 µM in data set [1] (setting [4]) and in data set [1] (setting [5]) were 103% and 104%, respectively. Besides, the “HepG2 Tox% @ 50 uM rep1” value in data set [3] came to 102%.
The like results for `CCOc1ccc(Nc2c3ccccc3nc3ccccc23)cc1` [MMV000304] were, in that order, 104%, 104% and 102%.
On the same counts, the results for `CCOC(=O)c1cnc2ccc(OC)cc2c1NCc1ccccc1` [MMV665813] are 103%, 104% and 102%.
On the same counts, the results for `CCCCCn1c(=N)n(CC(O)COc2cccc(C)c2)c2ccccc21` (stereo not drawn) [MMV000444] are 102%, 103% and 100%.
As for `OC(CNC1CCCCC1)Cn1c2ccc(I)cc2c2cc(I)ccc21` (stereo not drawn) [MMV665882], the inhibition at 50 µM in data set [1] (setting [4]) was 103%; in data set [1] (setting [5]) it was 104%. Besides, the “HepG2 Tox% @ 50 uM rep1” value in data set [3] was 100%.
The like results for `CCOc1ccc2nc(C)cc(Nc3ccc(N(C)C)cc3)c2c1` [MMV007020] were, in that order, 100%, 101% and 97%.
Take `OC(CNCC1CCCO1)Cn1c2ccc(Cl)cc2c2cc(Cl)ccc21` (stereo not drawn) [MMV396736]: the inhibition at 50 µM in data set [1] (setting [4]) and in data set [1] (setting [5]) was 101% each time. Also, in data set [3], the “HepG2 Tox% @ 50 uM rep1” value is on record as 98%. For the same molecule, the “HepG2 Tox% @ 50 uM rep2” value in data set [3] was 99%.

Broadly, the inhibition is the relative decrease from the control value, in per cent.
